In brackets after ≈: the same amount, converted by molar mass.

Common to all, as to assay type: functional
Assay [1] deals with Radical scavenging activity. Kind of assay: Antioxidant activity assessed as DPPH radical scavenging activity by spectrophotometric analysis. (DPPH is a stable violet radical that fades when it is reduced.)
Assay [2] has as its system Aspergillus oryzae. Kind of assay: Antifungal activity against Aspergillus oryzae at 1 mg/ml after 72 hr by agar well diffusion method. The following applies: read-out: IZ. A general note: Agar diffusion results depend on both activity and mobility in agar.
The test system of assay [3] is Klebsiella pneumoniae. The assay is described as follows: Antibacterial activity against Klebsiella pneumoniae at 1 mg/ml after 24 hr by agar well diffusion method. The following applies: for zone of inhibition at 1000 µg/mL: read-out: IZ.
The test system of assay [4] is Pseudomonas aeruginosa. Kind of assay: Antibacterial activity against Pseudomonas aeruginosa at 1 mg/ml after 24 hr by agar well diffusion method. As to conditions: for zone of inhibition at 1000 µg/mL: read-out: IZ.
The test system of assay [5] is Staphylococcus aureus. The assay is described as follows: Antibacterial activity against Staphylococcus aureus at 1 mg/ml after 24 hr by agar well diffusion method. The following applies: for zone of inhibition at 1000 µg/mL: read-out: IZ.
For assay [6], the system named is Aspergillus terreus. The assay is described as follows: Antifungal activity against Aspergillus terreus at 1 mg/ml after 72 hr by agar well diffusion method. The following applies: read-out: IZ.
In assay [7] the test system is Aspergillus niger. Kind of assay: Antifungal activity against Aspergillus niger at 1 mg/ml after 72 hr by agar well diffusion method. The following applies: read-out: IZ.
The subject of assay [8] is Radical scavenging activity. Kind of assay: Antioxidant activity assessed as DPPH radical scavenging activity at 100 ug/ml by spectrophotometric analysis.

In the case of `CC(C)(C)c1cc(O)ccc1O` [E319], the IC50 in assay [1] was 14.46 µg/mL (≈ 87 µM).

As for `NNc1nc(-c2c(-c3ccccc3)[nH]c3ccc(Cl)cc23)c2c(N)n[nH]c2n1`, the zone of inhibition at 1000 µg/mL was determined as 13 mm in assay [2]; 9 mm in assay [3]; 13 mm in assay [4]; 13 mm in assay [5]; 10 mm in assay [6]; 9 mm in assay [7].

Consider `Cc1ccc2[nH]c(-c3ccccc3)c(-c3[nH]c(=S)[nH]c(=O)c3C#N)c2c1`, for which the zone of inhibition at 1000 µg/mL in assay [2] turned out to be 11 mm; in assay [3], 11 mm; in assay [4], 10 mm; in assay [5] it was 12 mm; in assay [6] it was 11 mm; in assay [7], 13 mm.

`N#Cc1c(-c2c(-c3ccccc3)[nH]c3ccc(Cl)cc23)n2nnnc2n2nnnc12`: the zone of inhibition at 1000 µg/mL in assay [2] turned out to be 10 mm; in assay [3] it was 13 mm; in assay [4] it was 12 mm; in assay [5], 14 mm; in assay [6], 11 mm; in assay [7] it was 13 mm.

`Cc1ccc2[nH]c(-c3ccccc3)c(-c3nc(NN)nc(NN)c3C#N)c2c1`: the zone of inhibition at 1000 µg/mL stood at 9 mm in assay [2]; 12 mm in assay [3]; 10 mm in assay [4]; 10 mm in assay [5]; 11 mm in assay [6]; 11 mm in assay [7].

Consider `Cc1ccc2[nH]c(-c3ccccc3)c(-c3nc(NN)nc4[nH]nc(N)c34)c2c1`, for which the zone of inhibition at 1000 µg/mL in assay [2] is 9 mm; in assay [3] it was 13 mm; in assay [4], 12 mm; in assay [5], 11 mm; in assay [6] it was 10 mm; in assay [7], 10 mm.

Consider `N#Cc1c(-c2c(-c3ccccc3)[nH]c3ccccc23)n2nnnc2n2nnnc12`, for which the zone of inhibition at 1000 µg/mL was 7 mm in assay [2]; 12 mm in assay [3]; 14 mm in assay [4]; 14 mm in assay [5]; 10 mm in assay [6]; 10 mm in assay [7].

With `N#Cc1c(NN)nc(NN)nc1-c1c(-c2ccccc2)[nH]c2ccccc12`, the zone of inhibition at 1000 µg/mL turned out to be 10 mm in assay [2]; 11 mm in assay [3]; 10 mm in assay [4]; 8 mm in assay [5]; 11 mm in assay [6]; 10 mm in assay [7].

For `N#Cc1c(NN)nc(NN)nc1-c1c(-c2ccccc2)[nH]c2ccc(Cl)cc12`, the zone of inhibition at 1000 µg/mL in assay [2] is 10 mm; in assay [3], 10 mm; in assay [4] it was 13 mm; in assay [5] it was 11 mm; in assay [6], 10 mm; in assay [7], 8 mm.

For `COc1ccc(O)c(C(C)(C)C)c1.COc1ccc(O)cc1C(C)(C)C` [BUTYLATED HYDROXYANISOLE], the IC50 in assay [1] amounted to 14.35 µg/mL.

On to `NNc1nc(-c2c(-c3ccccc3)[nH]c3ccccc23)c2c(N)n[nH]c2n1`, for which the zone of inhibition at 1000 µg/mL in assay [2] was 12 mm; in assay [3] it was 12 mm; in assay [4] it was 11 mm; in assay [5] it was 12 mm; in assay [6], 10 mm; in assay [7], 12 mm.

For `Cc1ccc2[nH]c(-c3ccccc3)c(-c3[nH]c(=S)[nH]c(=S)c3C#N)c2c1`, the zone of inhibition at 1000 µg/mL amounted to 9 mm in assay [2]; 8 mm in assay [3]; 10 mm in assay [4]; 9 mm in assay [5]; 10 mm in assay [6]; 9 mm in assay [7].

As for `N#Cc1c(-c2c(-c3ccccc3)[nH]c3ccc(Cl)cc23)[nH]c(=S)[nH]c1=O`, the zone of inhibition at 1000 µg/mL in assay [2] amounted to 12 mm; in assay [3], 14 mm; in assay [4], 10 mm; in assay [5], 14 mm; in assay [6], 9 mm; in assay [7] it was 10 mm. In assay [8], the Activity is 79.7%. Besides, the IC50 in assay [1] came out at 16.43 µg/mL (≈ 43.4 µM).

In the case of `N#Cc1c(-c2c(-c3ccccc3)[nH]c3ccc(Cl)cc23)[nH]c(=S)[nH]c1=S`, the zone of inhibition at 1000 µg/mL came out at 11 mm in assay [2]; 9 mm in assay [3]; 10 mm in assay [4]; 12 mm in assay [5]; 10 mm in assay [6]; 11 mm in assay [7].

With `N#Cc1c(-c2c(-c3ccccc3)[nH]c3ccccc23)[nH]c(=S)[nH]c1=O`, the zone of inhibition at 1000 µg/mL was determined as 10 mm in assay [2]; 12 mm in assay [3]; 11 mm in assay [4]; 11 mm in assay [5]; 10 mm in assay [6]; 10 mm in assay [7].

With `Cc1ccc2[nH]c(-c3ccccc3)c(-c3c(C#N)c4nnnn4c4nnnn34)c2c1`, the zone of inhibition at 1000 µg/mL in assay [2] was 9 mm; in assay [3], 11 mm; in assay [4], 10 mm; in assay [5], 10 mm; in assay [6], 12 mm; in assay [7], 9 mm.

As for `N#Cc1c(-c2c(-c3ccccc3)[nH]c3ccccc23)[nH]c(=S)[nH]c1=S`, the zone of inhibition at 1000 µg/mL in assay [2] was determined as 10 mm; in assay [3] it was 8 mm; in assay [4] it was 7 mm; in assay [5], 8 mm; in assay [6], 11 mm; in assay [7], 11 mm.

As to GENTAMICIN, the results for the inhibition zone (IZ) in assay [3], in assay [4] and in assay [5] were 15 mm, 16 mm and 15 mm, respectively.

On to `OC(Cn1cncn1)(Cn1cncn1)c1ccc(F)cc1F` [FLUCONAZOLE], for which the values for the zone of inhibition at 1000 µg/mL in assay [2], in assay [6] and in assay [7] were 14 mm, 15 mm and 14 mm, respectively.

What is called IC50 is the concentration that gives 50% inhibition.
